One assay relates to P. berghei HP15 ANKA. As to the kind of experiment: Four-day in vivo suppressive test in TO mice. The arrangement: species or system Plasmodium berghei. The settings on record: 100 mg/kg × 4 days i.p., day 5 blood films, 5 equals control. The procedure:
The 4-day suppressive test has been widely used and it can be performed within a 1 week period. The test consists of the inoculation of parasitised erythrocytes on the first day of the experiment (D0), followed by an injection of the test compound, which is also administered on the 2nd, 3rd and 4th days of the protocol. On the 5th day, blood films are taken and antimalarial activity is assessed either by calculating parasitemia, or by scoring parasite numbers on a predetermined scale (i.e., 1-5).
The protocol is summarized as follows. Five female TO mice were used per test group. P. berghei HP15 ANKA parasites were collected by cardiac puncture using a heparinised syringe from a donor mouse having a 30+% parasitaemia. The blood was diluted with diluting agent (50% HIFCS+50% sterile PBS) to a final concentration of 1% parasitaemia or 1×10^7 infected erythrocytes per 0.2 mL of the infecting suspension. […] The steroid formulations were administered intraperitoneally 2 hours after parasite inoculation. The compounds were administered once a day starting on Do, and continued on the following three days. Blood films were made from tail blood on the day after the last dosing of compound and the blood was fixed with 100% methanol and stained with 10% Giemsa. Parasitaemias were scored on a scale of 0-5, where 5 is equal to the control.
An inoculum of 1% parasitaemia […], 0.2 mL per mouse (female strain TO mice), was delivered by intravenous injection. Drug administration commenced 2 hours after inoculation on Day 1 and continued for 3 days.

The next assay concerns BALB/c mice. As to the kind of experiment: Reversal of immunosenescence: HBsAg vaccination of aged mice. The format is in vivo. The note with it: for mice producing anti-HBsAg in response to secondary vaccination: groups of 8, 0.3 mg/mouse at primary vaccination. Here is the method: Healthy aged (20-month) or immunologically-mature (3-month) BALB/c mice were vaccinated with hepatitis B surface antigen (HBsAg) (2 μg; Recombivax-HB; Merck) and Alum (2.75 μg). The aged mice were vaccinated with the antigen and also received a single subcutaneous injection of either 0.3 mg or 3.0 mg of 3β,7β,17β-trihydroxyandrost-5-ene (AET), BrEA or 7-oxodehydroepiandrosterone, dehydroepiandrosterone or the vehicle (placebo control). The AET, BrEA hemihydrate or dehydroepiandrosterone was present in a formulation that contained 60 mg/mL of the compound suspended in 0.1% w/v carboxymethyl cellulose sodium in 0.9% saline. 7-Oxodehydroepiandrosterone was in a formulation that contained 60 mg/mL of the compound suspended in 0.1% w/v gum arabic in 0.9% saline. A concentration of 6 mg/mL was obtained by diluting the 60 mg/mL formulation with vehicle that lacked the active substance.
Blood samples were collected 14, 21 and 34 days after treatment and the sera were analyzed by ELISA to determine the concentration of HBsAg-specific IgG (total IgG). In addition, samples obtained on day 21 were analyzed to determine the concentration of HBsAg-specific IgG1 and IgG2a subclasses. The results summarized below were average values obtained with blood samples collected 21 days after vaccination of groups of 8 mice. Subcutaneous injection was performed after shaving the hair from the thighs of each mouse. The injected volume was 50 μL for compound (3.0 mg or 0.3 mg) or placebo, and for vaccine preparation. The vehicle control consisted of carboxymethylcellulose (0.5%) in saline (0.9%). Antibody titers were determined by ELISA.
Secondary antibody response. Later, 42 days after the initial exposure to HBsAg, serum samples were taken from the mice described in the previous section and these were tested for anti-HBsAg IgG. At this time-point, vaccine-specific IgG titers were either low or undetectable. Three days later (45 days after first vaccination), the mice were injected again with HBsAg in Alum, but this time, none of the mice received immunosteroid (secondary vaccination). Serum samples collected 7 days and 14 days after the second exposure to HBsAg vaccine were assayed for anti-HBsAg antibody. […] In contrast, in aged mice that had received no immunosteroid with the first HBsAg injection, low levels of anti-HBsAg were detectable, and only in 4 of the 8 mice in this group was antibody detectable. Increases in anti-HBsAg titers were seen following secondary vaccination in aged animals that had been treated with immunosteroid in conjunction with the first HBsAg exposure. The anti-HBsAg antibody titer in serum increased following secondary vaccination in all 8 mice in the groups of aged mice that were treated at primary vaccination with the higher dose (3 mg/mouse) of AET, BrEA or 7-oxodehydroepiandrosterone, or with dehydroepiandrosterone (0.3 mg/mouse). In those aged mice that had received the lower dose (0.3 mg/mouse) of AET, BrEA or 7-oxodehydroepiandrosterone at vaccination, an intermediate response was seen, with 6 of the 8 mice producing detectable anti-HBsAg in response to secondary vaccination.

Assay [1] concerns Chloroquine sensitive T996/86 P. falciparum. As to the kind of experiment: In vitro antimalarial testing (schizont inhibition / 3H-hypoxanthine incorporation). It is filed as cell-based. The note with it: Plasmodium falciparum, T996. The procedure: For in vitro antimalarial testing, micro-titer plates were used. The concentration of drugs were prepared as pMol/well according to WHO standard procedures (WHO, 1990). The test compound was dissolved in 15% DMSO in sterile RPMI-1640. Both chloroquine sensitive (e.g., WS/97) and resistant (e.g., MN/97) isolates of Plasmodium species are used.
A schizont inhibition assay was performed as follows. The micro-titer plates were predosed with various concentrations of the test compound. 50 μL of parasitised erythrocyte suspension in RPMI-1640 (0.2 mL erythrocyte+0.3 mL serum+4-5 ml RPMI-1640) were dispensed in microtiter wells that contained various concentrations of drug. Triplicate readings were made for each concentration.
A ^3H-hypoxanthine incorporation assay was performed as follows. The testing was carried out according to the procedure of Desjardins et al. 1979. After 30 hr culture at 37 degrees C., the same microtiter plates from schizont inhibition assays with another triplicate wells were pulsed with ^3H-hypoxanthine for overnight. The cell suspensions were washed twice on millipore glass fiber filter with Millipore filter apparatus. The filter discs were counted for DPM by a Beckman LS6000 β-scintillation counter. The activity of the drug was measured by plotting DPM against concentration of drug.

Each structure is given as a SMILES string. pIC50: −log10 of the molar value.

The pIC50 is −log10 of the IC50, conventionally taken in molar units. The low end stands for a high IC50, the high end for a low IC50. Usually inhibition stands for how much of the control response was suppressed. Higher therefore signals strong suppression. Regarding `C[C@]12CC[C@H](O)CC1=CC[C@@H]1[C@@H]2CC[C@]2(C)C(=O)CC[C@@H]12` [DHEA, dehydroepiandrosterone, reference compound], the “Parasitaemia Score (0-5)” value with P. berghei HP15 ANKA is 1. The “mice producing anti-HBsAg in response to secondary vaccination” value with BALB/c mice was 8 mice. Moreover, in assay [1], the negative logarithm of the IC50 (pIC50) was 4.72, the inhibition at 0.938 µM was found to be 37.2%, 1.875 µM produced 23.2% inhibition and the inhibition at 3.25 µM was 37.2%. In assay [1], the inhibition at 7.5 µM came out at 38.3%, the inhibition at 15 µM amounted to 44% and the inhibition at 30 µM stood at 65.6%.

Turning to `C[C@]12CC[C@H](O)C[C@@H]1CC[C@@H]1[C@@H]2CC[C@]2(C)C(=O)[C@H](Br)C[C@@H]12` [BrEA, 16α-bromo-3β-hydroxy-5α-androstane-17-one], the “Parasitaemia Score (0-5)” value with P. berghei HP15 ANKA is given as 1. The “mice producing anti-HBsAg in response to secondary vaccination” value with BALB/c mice is 6 mice. Also, in the assay on BALB/c mice (groups of 8, 3 mg/mouse at primary vaccination), the “mice with increased anti-HBsAg antibody titer following secondary vaccination” value came to 8 mice. For the same compound, in assay [1], the negative logarithm of the IC50 (pIC50) is 5.12, testing at 0.938 µM gave an inhibition of 31.8%, at 1.875 µM the inhibition was 40.9% and testing at 3.25 µM gave an inhibition of 43.7%. In assay [1], this compound registered an inhibition at 7.5 µM of 50%, an inhibition at 15 µM of 60.1% and an inhibition at 30 µM of 98%.

The values are drawn from patent US20070275936A1, “Formulations and Treatment Methods” (priority 1998, published 2007).
